Experimental data reported in publication PMC11350787, “Antimicrobial Properties and Cytotoxicity of LL-37-Derived Synthetic Peptides to Treat Orthopedic Infections” (Antibiotics, 2024).
Values after ≈ are worked out from the molar mass of the structure shown.

Legend:
E. coli ATCC 25922 = experiment: microbe, parasite or virus in culture
Description: (§1) A total of 18 bacterial strains relevant to orthopedic infections were used for microbiological tests, including 8 ATCC (American Type Culture Collection, ATCC, Manassas, VA, USA) and 10 clinical isolates (CI) from the Laboratory of Clinical Chemistry and Microbiology, IRCCS Ospedale Galeazzi–Sant’Ambrogio of Milan (Italy) strain collection. The ATCC strains were used for the first screening (MIC/MBC) of all the AMPs produced, while the clinical isolates were used for further MIC/MBC assays on selected AMPs. Among CI, S. epidermidis GOI1153754-03-14 has been already characterized and used in previous studies. All the strains were stocked at −80°C and working stocks were stored at −20 °C. At the occurrence, the bacteria were resuscitated in Brain Hearth Infusion (BHI, Millipore, Milan, Italy) broth at 37 °C for 18 h from the working stocks.
(§2) To determine the minimum inhibitory concentration (MIC) and the minimum bactericidal concentration (MBC), ISO20776-1 and Clinical and Laboratory Standards Institute guidelines were followed. A commercial synthetic LL-37 (Aurogene, Rome, Italy) was used as the control in the MIC and MBC assays. A stock solution of each AMP was prepared at 600 µg/mL to achieve a final concentration of 300 µg/mL. […] The MIC was determined according to the aforementioned standard guidelines. The MBC was determined by plating 2 µL of culture from each well of the MIC plates on a Tryptic Soy Agar (TSA, Millipore, Milan, Italy) plate and incubated for 24 h at 37 °C. The concentration at which there was no growth was recorded as MBC. Each experiment was carried out in triplicate. Representative MIC and MBC values for vancomycin and gentamicin were assessed to offer a benchmark comparison for the AMPs. Quality control was conducted with Staphylococcus aureus ATCC 29,213 and vancomycin according to EUCAST guidelines.

P. aeruginosa ATCC 27853 = experiment: microbe, parasite or virus in culture
Description: as §1, §2

S. aureus ATCC 25923 = experiment: microbe, parasite or virus in culture
Description: as §1, §2

S. aureus ATCC 43300 = experiment: microbe, parasite or virus in culture
Description: as §1, §2

[1] = test system: S. epidermidis GOI1153754-03-14 (CI); experiment: microbe, parasite or virus in culture
Description: as §1, §2

[2] = test system: S. aureus ATCC 49230 biofilm; experiment: Biofilm removal activity (CLSM, LIVE/DEAD); type: cell-based; settings: 72-h-old biofilm; 18 h; vancomycin 0.5% vs FK-16 75 µg/mL; p < 0.01
Procedure: (§3) Rough titanium disks (Adler Ortho, Cormano, Milan, Italy) were autoclaved at 121°C for 15 min and placed into sterile 6-well plates. S. epidermidis ATCC 35984, S. epidermidis GOI1153754-03-14, S. aureus ATCC 49,230 and S. aureus Sau89 were grown overnight in BHI broth at 37 °C. The culture was diluted up to 1.5 × 10^6 in BHI broth and 6 mL of each culture was inoculated in the disk containing wells. Two disks were inoculated with sterile BHI as sterility control. All the plates were incubated at 37 °C for 72 h. After incubation, the disks were gently washed with sterile saline to remove unattached cells. Each disk was treated with either vancomycin at 0.5% (Pharmatex, Milan, Italy), GF-17 (18.75 µg/mL) or FK-16 (75 µg/mL) for 18 h. Two disks for each bacterial inoculum were untreated as control. Subsequently, disks were gently washed with sterile saline solution and stained with Filmtracer^TM LIVE/DEAD^TM Biofilm Viability Kit (Thermo Fisher Diagnostics, Monza, Italy), according to the manufacturer’s instructions, washed again with sterile saline and observed with an upright TCS SP8 (Leica Microsystems CMS GmbH, Mannheim, Germany) using a 20X dry objective (HC PL FLUOTAR 20X/0.50 DRY). The images were acquired with Las X (Leica Microsystems CMS GmbH, Mannheim, Germany) and analyzed with Fiji software (Fiji, ImageJ version 1.53t, Wayne Rasband National Institutes of Health). For each channel, the biofilm area was measured after setting the threshold at 14 for the red channel and 20 for the green channel. The biofilm data were expressed as the percentage of red signal (dead cells) relative to the green channel (live cells). Finally, the data were normalized against the control, which was set to 1.

S. aureus Sau89 biofilm = experiment: Biofilm removal activity (CLSM, LIVE/DEAD); type: cell-based; settings: 72-h-old biofilm; 18 h; vancomycin 0.5% vs FK-16 75 µg/mL; p < 0.05
Procedure: as §3

[3] = test system: S. epidermidis ATCC 35984 biofilm; experiment: Biofilm removal activity (CLSM, LIVE/DEAD); type: cell-based; settings: 72-h-old biofilm; 18 h; vancomycin 0.5%; p < 0.01 vs FK-16
Procedure: as §3

[4] = test system: S. epidermidis GOI1153754-03-14 biofilm; experiment: Biofilm removal activity (CLSM, LIVE/DEAD); type: cell-based; settings: titanium disks; 18 h treatment; FK-16 75 µg/mL, GF-17 18.75 µg/mL, vancomycin 0.5%
Procedure: as §3

## CN[C@H](CC(C)C)C(=O)N[C@H]1C(=O)N[C@@H](CC(N)=O)C(=O)N[C@H]2C(=O)N[C@H]3C(=O)N[C@H](C(=O)N[C@H](C(=O)O)c4cc(O)cc(O)c4-c4cc3ccc4O)[C@H](O)c3ccc(c(Cl)c3)Oc3cc2cc(c3O[C@@H]2O[C@H](CO)[C@@H](O)[C@H](O)[C@H]2O[C@H]2C[C@](C)(N)[C@H](O)[C@H](C)O2)Oc2ccc(cc2Cl)[C@H]1O [Van, vancomycin]
E. coli ATCC 25922; E. coli 25922
  Susceptibility category by MIC (EUCAST clinical breakpoints tables, v. 14): R
E. coli ATCC 25922; Escherichia coli, ATCC25922, 24 h, read-out: Minimum Bactericidal Concentration (MBC)
  MBC: > 40 µg/mL
E. coli ATCC 25922; Escherichia coli, ATCC25922, read-out: Minimum Inhibitory Concentration (MIC)
  MIC: > 40 µg/mL
P. aeruginosa ATCC 27853; P. aeruginosa 27853
  Susceptibility category by MIC (EUCAST clinical breakpoints tables, v. 14): R
P. aeruginosa ATCC 27853; Pseudomonas aeruginosa, ATCC27853, 24 h, read-out: Minimum Bactericidal Concentration (MBC)
  MBC: > 40 µg/mL
P. aeruginosa ATCC 27853; Pseudomonas aeruginosa, ATCC27853, read-out: Minimum Inhibitory Concentration (MIC)
  MIC: > 40 µg/mL
S. aureus ATCC 25923; S. aureus 25923
  Susceptibility category by MIC (EUCAST clinical breakpoints tables, v. 14): S
S. aureus ATCC 25923; Staphylococcus aureus, ATCC25923, 24 h, read-out: Minimum Bactericidal Concentration (MBC)
  MBC: 0.6 µg/mL (≈ 0.414 µM)
S. aureus ATCC 25923; Staphylococcus aureus, ATCC25923, read-out: Minimum Inhibitory Concentration (MIC)
  MIC: 0.6 µg/mL (≈ 0.414 µM)
S. aureus ATCC 43300; S. aureus 43,300 as printed in text
  Susceptibility category by MIC (EUCAST clinical breakpoints tables, version 14): S
S. aureus ATCC 43300; Staphylococcus aureus, ATCC43300, 24 h, read-out: Minimum Bactericidal Concentration (MBC)
  MBC: 0.6 µg/mL (≈ 0.414 µM)
S. aureus ATCC 43300; Staphylococcus aureus, ATCC43300, read-out: Minimum Inhibitory Concentration (MIC)
  MIC: 0.6 µg/mL (≈ 0.414 µM)
[1]; S. epidermidis GOI1153754-03-14
  Susceptibility category by MIC (EUCAST clinical breakpoints tables, v. 14): S
[1]; Staphylococcus epidermidis, read-out: Minimum Bactericidal Concentration (MBC)
  MBC: 2.5 µg/mL (≈ 1.73 µM)
[1]; Staphylococcus epidermidis, read-out: Minimum Inhibitory Concentration (MIC)
  MIC: 1.25 µg/mL (≈ 0.863 µM)
[2]
  Dead bacteria in biofilm (quantitative analysis of fluorescent signals, relative mortality): more dead cells compared to FK-16 treatment
S. aureus Sau89 biofilm
  Dead bacteria in biofilm (quantitative analysis of fluorescent signals, relative mortality): more dead cells compared to FK-16 treatment
[3]
  Dead bacteria in biofilm (quantitative analysis of fluorescent signals, relative mortality): higher than the uninoculated control
[4]
  CLSM observation of treated 72-h-old biofilm (live green / dead red): less disruptive effect
